Data set [1] is described as follows: Dissolution time of crystalline PAP dispersed in standard detergent solution (HPLC). The format is physicochemical. The conditions noted are these: listed as crystals of PAP in beta form. The method, then: Successive samples of liquid phase, carefully filtered on filter of 0.45 micron, are drawn and the PAP concentration in solution is determined by HPLC.
Said times are determined by drawing some curves reporting in ordinate the PAP concentration dissolved in the aqueous phase (determined by HPLC) and in abscissae the sample drawing time, taking as 100% the PAP concentration asymptotically obtained at infinite time.
The previous test is repeated by dispersing 70 mg of anhydrous crystalline PAP (base 100%), respectively of crystals and microcrystals (sizes lower than 10 micron) of PAP in beta form, obtained as from Examples 2B and 2A respectively, in one liter of aqueous solution, prepared as above, stirred and thermostated at the temperature of 25° C.
Successive samples of liquid phase, carefully filtered on filter of 0.45 micron, are drawn, and the PAP concentration in solution is determined by HPLC.

Data set [2] in a line: Phase separation and sedimentation of 5% aqueous PAP dispersion at rest in graduated cylinder. It counts as physicochemical. The conditions noted are these: 5% by weight PAP dispersion, rest at room temperature. The method, then:
In a beaker immersed in a thermostatic bath an aqueous dispersion of alpha crystalline PAP in demineralized water at 5% by weight of PAP is prepared, by adding to 473.5 ml of demineralized water at the temperature of 50° C., kept under stirring with an anchor and a magnetic stirrer, 500 ppm of antifoam DB 100 and 1,000 ppm of surfactant Hostapur® SAS and 26.50 g of crystalline PAP in alpha form, of technical degree (titre: 94.3%) having average sizes higher than 100 micron. After 10 minutes of stirring at 50° C., the beaker is removed from the thermostatic bath and the aqueous suspension is transferred in a graduated cylinder. It is let rest at room temperature in the graduated cylinder.
An aqueous dispersion of crystalline PAP in demineralized water at 5% by weight of PAP is prepared, as described in Example 2A, by adding to 471.9 ml of demineralized water 500 ppm of antifoam DB 100 and 1000 ppm of surfactant Hostapur® SAS and 28.1 g of crystalline PAP in beta form of technical degree (titre: 89%), having average sizes higher than 100 micron, in particular 80% of the particles being comprised between 100 and 200 micron. After 10 minutes of stirring at 50° C., the beaker is removed and the suspension is transferred into a graduated cylinder, as in Example 2A. […] The separation of the supernatant aqueous phase increases after 2 hours to more than 70% of the total volume.

For `O=C(CCCCCN1C(=O)c2ccccc2C1=O)OO` [Example 2B, ε-phthalimido-peroxyhexanoic acid], the “necessary time for the dissolution of 90% of the crystalline PAP initially dispersed” value came out at 60 min in data set [1] (70 mg PAP in 1 liter water 10° F. hardness + 1.70 g detergent IEC type B, 25° C.) and 30 min in data set [1] (100 mg PAP in 1 liter water 10° F. hardness + 1.70 g detergent IEC type B, 40° C.). The “separation of supernatant aqueous phase” value in data set [2] (after 10 minutes) is recorded as 60 % of the total volume; in data set [2] (after 2 hours) it was “more than 70 % of the total volume”. The “solid phase thickening / sedimentation on the cylinder bottom” value in data set [2] (2A after two hours and 48 hours, 2B after 10 minutes) is recorded as “sedimentation of a precipitate on the bottom”.

The values above are taken from patent publication US7943657B2, “Imidoalkanpercarboxylic acids” (Solvay Solexis S.p.A., priority 2002, dated 2011).
